A short description of data set [1]: Mouse Tail Pinch Technique (modified Haffner procedure). To be noted: lack of an audible squeak. The format is in vivo, mice. The text has this:
The activity of compounds of this invention as analgesic agents has also been shown by testing their effectiveness in a Mouse Tail Pinch Technique. This technique was a modification of the Haffner procedure [Deutsche Med. Wochenschrifte, 55, 731-732 (1929)] in which the mice were strongly pinched on the base of the tail. An audible squeak was elicited in normal non-drugged mice. Lack of an audible squeak was taken as indication of analgesic activity in drugged mice.

Data set [2] in a line: Rat Flinch Jump Test (suppression of the jump component). The format is in vivo. More on the design: unit not given here. The text has this: D. Suppression of the "jump" component of the Flinch-Jump Test [Evans, Psychopharmacologia, 2, 318 (1961)].
The following results were obtained when the performance of the d-, l and dl- forms of a compound of the invention were compared in the Rat Flinch Jump Thresholds The control Jump Threshold using saline were 0.78 at 0.5 hr. and 0.92 at 2 hr.
The following results were obtained when 6,7-dimethoxy-2-methyl-4-oxo-1,2,3,4-tetrahydroquinoline, ethyl 6,7-dimethoxy-2-methyl-4-oxo-1,2,3,4-tetrahydroquinoline-1-carboxylate and benzyl 6,7-dimethoxy-2-methyl-4-oxo-1,2,3,4-tetrahydroquinoline-1-carboxylate were compared in the Rat Flinch Jump Test. The dosage of test compound was 56 mpk. Each of the compounds was in its racemic form.

Data set [3] in a line: Symptomatology (rotorod, inclined plane). The format is in vivo, mice. To be noted: intraperitoneally; for Symptomatology, Inclined Plane: inability to remain on an inclined plane; for Symptomatology, Rotorod: inability to ride a rotating rod. How it is done: c. Symtomatology--Four groups of 3 mice were treated intraperitoneally with 31.6, 100, 316, or 1000 mg/kg of the test compound. At 1/2, 2, or 5 hours after treatment, symtomatological observations were made; observations were all-or-none, and classified into autonomic, muscular, reflex or behavioral categories. […] Symptoms interpreted as indicating tranquilizer activity included decreased spontaneous motor activity, inability to ride a rotating rod (rotorod), and inability to remain on an inclined plane.
On the technique in general: The rotarod test checks motor coordination on a turning rod.

A short description of the next data set: Tail Flick Test. The format is in vivo. To be noted: 100 mpk. The source says: H. Tail Flick Test [Witkin et al, Proc. Soc. Exp. Biol., 101, 377 (1959)].
On the technique in general: Hot-plate and tail-flick tests time the reaction to a heat stimulus.

A short description of a further data set: Hot Plate Test. To be noted: 100 mpk. The format is in vivo. The source says: G. Hot Plate Test [Eddy et al, J. Pharm. Exp. Ther., 107, 385 (1953)].
Another data set can be described thus: LD50. To be noted: in vivo.
A short description of data set [4]: PBQ Writhing (Suppression of Writhing Test). The format is in vivo. To be noted: 100 mpk. The text has this: F. Suppression of Writhing Test [Siegmund et al, Proc. Sec. Exp. Biol., 95, 729 (1957].
(In general: Writhing tests count abdominal constrictions after an irritant is injected.)

Data set [5] is described as follows: Conditioned Avoidance Behavior (Maffi). The format is in vivo. To be noted: 0.5 hr. The text has this:
(§1) A. Conditioned Avoidance Behavior [Maffi, J. Pharmacol., 11, 129 (1959); Sidman, Science, 118, 157 (1953)].

The nature of data set [6]: Conditioned Avoidance Behavior (Sidman). The format is in vivo.
From the text: as §1

A short description of data set [7]: Sedation Test (jiggle cage). To be noted: oral, jiggle cage for 1 hr. from 1.5 hr. The format is in vivo, male Sprague-Dawley rats. The source says:
B. Sedation Test -- The subjects were male Sprague-Dawley rats weighing approximately 200 g and fed and watered ad lib before the experiment. Eight rats were assigned to each treatment group, and each rat was used only once.
1.5 hr. after oral treatment, each rat was placed in a standard jiggle cage for 1 hr. In this device, the subject was confined in a 6 × 6 × 3.5 in. Plexiglas enclosure. The enclosure was attached to one end of a flexible steel arm. This configuration, all of which was housed in a soundproof, ventilated chamber, allowed the enclosure to jiggle slightly with any movement. A force displacement transducer mounted under the jiggle cage monitored any vertical movement of the subject. The output of the transducer was coupled to a strain-gauge amplifier and to an analog recorder. To provide digital data of movement/non-movement times a trigger circuit was constructed in which the output of the strain-gauge amplifier was attentuated and rectified to activate a relay whenever the subject moved. When the relay remained deenergized for 3 sec., a timer was activated. Movement by the subject energized the relay and stopped the timer until 3 sec. of immobility recurred. This 3 sec. criterion eliminated brief periods of inactivity observed even in active rats. […]

A further data set in a line: Escape Titration Test. The format is in vivo. To be noted: p.o. The source says: E. Escape Titration Test [Weiss et al, Science, 128, 1575 (1958) ].
Where [8] appears, read: 56 mpk, 0.5 hr., racemic compounds compared (table 4).
The mark [9] stands for this setting: 56 mpk, 2.0 hr., racemic compounds compared (table 4).
Setting [10] is: 17.5 mpk, 2 hr, d-, l- and dl- forms compared, saline control 0.92.
Where [11] appears, read: 17.5 mpk, .5 hr, d-, l- and dl- forms compared, saline control 0.78.
The mark [12] stands for this setting: 32 mpk, 2 hr, d-, l- and dl- forms compared, saline control 0.92.
The mark [13] stands for this setting: 32 mpk, .5 hr, d-, l- and dl- forms compared, saline control 0.78.
The mark [14] stands for this setting: 56 mpk, 2 hr, d-, l- and dl- forms compared, saline control 0.92.
Where [15] appears, read: 56 mpk, .5 hr, d-, l- and dl- forms compared, saline control 0.78.

16 molecules from patent US4013662A, “Alkyl and benzyl 6,7-dialkoxy-2-methyl-4-oxo-1,2,3,4-tetrahydroquinoline-1-carboxylates” (Pfizer Inc., priority 1975, dated 1977) can be followed below.

Bounds are passed on as bounds.

In the case of `CCCCOC(=O)N1c2cc(OC)c(OC)cc2C(=O)CC1C` (stereo not shown) [drawing 17], the ED50 (in general, the dose that gives a 50% effect, or the effect in half of the subjects) in [1] is over 32 mg/kg.

Regarding `COc1cc2c(cc1OC)C(=O)CC(C)N2` (racemic) [6,7-Dimethoxy-2-methyl-4-oxo-1,2,3,4-tetrahydroquinoline], the “Jump Threshold” value is listed as 1.47 in data set [2] (setting [8]) and 1.10 in [2] (setting [9]).

Molecule `CCOC(=O)N1c2cc(OC)c(OC)cc2C(=O)CC1C` (stereo not shown) [drawing 15] had a median effective dose (ED50) in data set [1] of over 100 mg/kg.

On to `COC(=O)N1c2cc(OC)c(OC)cc2C(=O)CC1C` (stereo not shown) [drawing 16], for which the ED50 in [1] fell in the range of 100 to 316 mg/kg.

Turning to `CCOC(=O)N1c2cc(OC)c(OC)cc2C(=O)CC1C` (single isomer, unassigned) [l-ethyl 6,7-dimethoxy-2-methyl-4-oxo-1,2,3,4-tetrahydroquino] [l-Ethyl 6,7-Dimethoxy-2-methyl-4-oxo-1,2,3,4-tetrahydroquinoline-1-carboxylate], the “Jump Threshold” value in [2] (setting [10]) is 0.92; in data set [2] (setting [11]) it was 0.92; in data set [2] (setting [12]) it was 0.86; in data set [2] (setting [13]), 0.85; in data set [2] (setting [14]), 0.86; in data set [2] (setting [15]), 1.05.

Take `COc1cc2c(cc1OC)N(C(=O)OCc1ccccc1)C(C)CC2=O` (racemic) [Benzyl 6,7-Dimethoxy-2-methyl-4-oxo-1,2,3,4-tetrahydroquinoline-1-carboxylate]: the figures for the “Jump Threshold” value in data set [2] (setting [8]) and in data set [2] (setting [9]) were 1.47 and 1.21, respectively.

Regarding `COc1cc2c(cc1OC)N(C(=O)OCc1ccccc1)C(C)CC2=O` (stereo not shown) [drawing 10], in data set [3], the “Symptomatology, Inclined Plane” value is given as 100-316 mpk and the “Symptomatology, Rotorod” value was 100-316 mpk.

Turning to `COC(=O)N1c2cc(OC)c(OC)cc2C(=O)CC1C` (stereo not shown) [drawing 8], in [3], the “Symptomatology, Inclined Plane” value is recorded as 100-316 mpk and the “Symptomatology, Rotorod” value is 100-316 mpk.

For `CCCCOC(=O)N1c2cc(OC)c(OC)cc2C(=O)CC1C` (stereo not shown) [drawing 9], in data set [3], the “Symptomatology, Inclined Plane” value was 100-316 mpk and the “Symptomatology, Rotorod” value is given as 32-100 mpk.

Turning to `COC(=O)N1c2cc(OC)c(OC)cc2C(=O)CC1C` (stereo not shown) [drawing 12], the “Tail Flick % Protected” value in “Tail Flick Test” (2 h) and in the data set “Tail Flick Test” (.5 h) was 0% throughout. The “Hot Plate % Protected” value in the data set “Hot Plate Test” (2 h) and in “Hot Plate Test” (.5 h) was 0% in each case. For the same molecule, the median lethal dose (LD50) (as a rule, the dose expected to kill half of the subjects tested) in “LD50” is over 1000 mg/kg. For the same molecule, the “Rat Flinch Jump Test, Jump Threshold” value in data set [2] (32 mpk i.p., 2 h) was determined as 1.2; in data set [2] (32 mpk i.p., .5 h) it was 1.6. Also, in data set [4], the “PBQ Writhing” value is listed as “Inactive at 100 mpk”.

With `CCOC(=O)N1c2cc(OC)c(OC)cc2C(=O)CC1C` (stereo not shown) [drawing 7], in data set [5], the “Conditioned Avoidance Behavior, Maffi” value was “Active at 56, 32 and 10 mpk”. Besides, the “Symptomatology, Inclined Plane” value in data set [3] is 32-100 mpk. Besides, the “Symptomatology, Rotorod” value in [3] is given as 3.2-10 mpk. Further, the “Conditioned Avoidance Behavior, Sidman” value in [6] (17.8 mpk) is on record as 2 of 3 animals; in data set [6] (32 mpk) it was “Active in 3 of 3 animals”. Besides, the “Sedation Test” value in data set [7] (10 mpk) is “Inactive at 10”; in data set [7] (32 mpk), “Active at 32 mpk”.

`COc1cc2c(cc1OC)N(C(=O)OCc1ccccc1)C(C)CC2=O` (stereo not shown) [drawing 14] displayed an LD50 in the data set “LD50” of over 1000 mg/kg. For the same molecule, in data set [4], the “PBQ Writhing” value was “Inactive at 100 mpk”.

With `CCCCOC(=O)N1c2cc(OC)c(OC)cc2C(=O)CC1C` (stereo not shown) [drawing 13], the “Tail Flick % Protected” value in “Tail Flick Test” (2 h) and in “Tail Flick Test” (.5 h) was 0% each time. Besides, the “Hot Plate % Protected” value in the data set “Hot Plate Test” (2 h) and in the data set “Hot Plate Test” (.5 h) was 0% in each case. In “LD50”, the LD50 fell in the range of 316 to 1000 mg/kg. Also, the “Rat Flinch Jump Test, Jump Threshold” value in [2] (32 mpk i.p., 2 h) was found to be 1.2; in data set [2] (32 mpk i.p., .5 h) it was 1.6. Moreover, the “PBQ Writhing” value in data set [4] was “Inactive at 100 mpk”.

Regarding `CCOC(=O)N1c2cc(OC)c(OC)cc2C(=O)CC1C` (racemic) [Ethyl 6,7-Dimethoxy-2-methyl-4-oxo-1,2,3,4-tetrahydroquinoline-1-carboxylate], the “Jump Threshold” value in [2] (setting [10]) came out at 0.98; in data set [2] (setting [11]), 1.26; in data set [2] (setting [12]) it was 1.18; in data set [2] (setting [13]), 1.38; in data set [2] (setting [8]), 1.58; in data set [2] (setting [9]), 1.42. For the same molecule, the “Jump Threshold” value turned out to be 1.45 in [2] (setting [14]) and 1.58 in [2] (setting [15]).

As to `CCOC(=O)N1c2cc(OC)c(OC)cc2C(=O)CC1C` (single isomer, unassigned) [d-ethyl 6,7-dimethoxy-2-methyl-4-oxo-1,2,3,4-tetrahydroquino] [d-Ethyl 6,7-Dimethoxy-2-methyl-4-oxo-1,2,3,4-tetrahydroquinoline-1-carboxylate], the “Jump Threshold” value in data set [2] (setting [10]) turned out to be 0.98; in data set [2] (setting [11]), 1.26; in data set [2] (setting [12]) it was 1.38; in data set [2] (setting [13]) it was 1.45; in data set [2] (setting [14]) it was 1.45; in data set [2] (setting [15]), 1.51.

Turning to `CCOC(=O)N1c2cc(OC)c(OC)cc2C(=O)CC1C` (stereo not shown) [drawing 11], the “Tail Flick % Protected” value in “Tail Flick Test” (2 h) and in “Tail Flick Test” (.5 h) was 0% each time. Further, the “Hot Plate % Protected” value in the data set “Hot Plate Test” (2 h) and in the data set “Hot Plate Test” (.5 h) was 0% throughout. The LD50 in “LD50” was over 1000 mg/kg. For the same molecule, the “Rat Flinch Jump Test, Jump Threshold” value in data set [2] (3.2 mpk i.p., 2 h) is reported as “.6”; in [2] (3.2 mpk i.p., .5 h), “.8”; in data set [2] (10 mpk i.p., 2 h, Run two) it was “.8”; in data set [2] (32 mpk i.p., 2 h) it was over 2.2; in [2] (32 mpk i.p., .5 h) it was over 2.2. Moreover, the “Escape Titration” value in the data set “Escape Titration Test” is reported as “Active at 32 mpk (p.o.)”. The “PBQ Writhing” value in data set [4] is on record as “Inactive at 100 mpk”.
